According to patent publication US20240158438A1, “POLYPEPTIDE COMPOUND AND APPLICATION THEREOF” (CHENGDU SINTANOVO BIOTECHNOLOGY CO., LTD., priority 2021, published 2024):
Starred links: 1 amine or outer side, 2 acyl side, 3 side chain; linkers in the order of their positions; H or OH if unused. Non-standard residues stand in square brackets, D forms with d. Residues, ends and D or L forms follow the SMILES beside them. *: point of attachment. Pyrrolidine3carbonyl(3S) = O=C([C@H]1CCNC1)*; X6 = O=C(C1[C@H]2CC[C@H](C2)N1[*:1])[*:2]; X5 = NC12CC3CC(C1)CC(CC(=O)*)(C3)C2; dBta = N[C@H](Cc1csc2ccccc12)C(=O)O; dCit = NC(=O)NCCC[C@@H](N)C(=O)O; X7 = O=C([C@@]12CNC[C@@H]1C2)*; Ac4c(3-oxa) = NC1(C(=O)O)COC1; X1 = N[C@H]1CCC[C@H]1C(=O)*; dNle = CCCC[C@@H](N)C(=O)O; Nle = CCCC[C@H](N)C(=O)O; dAbu = CC[C@@H](N)C(=O)O; Api = NC1(C(=O)O)CCNCC1; X4 = O=C([C@H]1CNCCO1)*; dAze = O=C(O)[C@H]1CCN1

Target: GHSR-1a (Homo sapiens (Human), UniProt Q92847)
Sequence (Q92847 whole entry): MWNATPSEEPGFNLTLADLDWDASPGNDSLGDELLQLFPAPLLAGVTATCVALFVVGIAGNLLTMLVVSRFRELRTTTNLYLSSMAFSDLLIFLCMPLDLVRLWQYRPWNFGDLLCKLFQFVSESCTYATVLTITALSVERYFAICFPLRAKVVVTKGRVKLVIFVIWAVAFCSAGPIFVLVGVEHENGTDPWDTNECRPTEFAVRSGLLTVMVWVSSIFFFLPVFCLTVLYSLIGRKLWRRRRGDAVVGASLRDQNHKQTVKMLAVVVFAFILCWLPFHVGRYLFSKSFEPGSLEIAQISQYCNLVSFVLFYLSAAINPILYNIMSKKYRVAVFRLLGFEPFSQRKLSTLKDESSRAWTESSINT
Test: Agonistic activity for GHSR-1a, FLIPR calcium assay
Assay type: cell-based
Conditions: agonist activity assay, Flp In-CHO-GHSR Stable Pool cells, FLIPR calcium 6 kit; read-out: The activity (IC50) of polypeptide compounds for GHSR-1a
Excerpt: The use of recombinant expression of GHSR provides several advantages; for example, the receptor can be expressed in a determined cell system, so that it is easier to distinguish between the reactions of the compounds with GHSR and the reactions with other receptors. For example, cell lines such as HEK293, COS7 and CHO that […] can be used to express GHSR, and the same cell lines without expression vectors are used as controls.
The activity of GHSR-1a can be measured using different techniques, for example, by detecting the change in the intracellular conformation of GHSR, the change in G-protein coupling activity, and/or the change in intracellular messengers. Techniques such as measuring intracellular Ca^2+ are preferably used to measure the activity of GHSR-1a. Examples of techniques known in the art that can be used to measure Ca^2+ include the use of FLIPR® calcium ion assay kits, among others. The FLIPR® calcium ion assay kits use a calcium ion sensitive indicator and a masking dye to ensure that a researcher carries out high-sensitivity fluorescent screening for G protein-coupled receptors, ion channels and other calcium ion sensitive targets. This experiment used FLIPR calcium 6 assay kits and FLIPR calcium 6-QF assay kits.
• a) Cell line: Flp In-CHO-GHSR Stable Pool; • b) Complete medium: F12K+10% fetal bovine serum+1×penicillin-streptomycin (PS)+600 μg/mL hygromycin B; • c) Cell seeding medium: F12K+10% fetal bovine serum. • d) Assay buffer: 1× HBSS+20 mM HEPES. • e) […] component A: Assay buffer and component A were left at room temperature (RT), 10 mL of buffer was added to component A, and the mixture was vortexed for 1-2 min and stored at −20° C.
• a) Compound stock solutions: the powders from in-house synthesis were made into 10 mM stock solutions in DMSO according to the standard protocol. • b) Compound storage: all compounds in DMSO were stored in room temperature desiccators for short-term storage (at most 4 months). The remaining compounds were left at −20 ° C. for long-term storage.
• a) Flp In-CHO-GHSR Stable Pool cells were cultured in complete medium. • b) The cells were placed in […] cell seeding medium in a 384-well cell culture plate (Corning, 3764) at 7k cells/well and cultured overnight at 37° C. with 5% CO2. • c) 20× component A was thawed at room temperature, diluted with assay buffer to 2×, and left at RT. • d) The Petri dish was taken out of the incubator and equilibrated at room temperature for 10 min. The medium was changed to […]. After the final wash, 20 μL of buffer was kept in each well, 20 μL of 2× component A was then added to each well, and the plate was incubated at 37° C. for 3-5 s. • e) 10 μL of 5× compound was added to the 384-well cell culture plate, and data collection was immediately performed using FLIPR Tetra.
• 1) Z′ factor=1−3×(SDMax+SDMin)/(MeanMax−MeanMin); • 2) CVMax=(SDMax/MeanMax)×100%; • 3) CVMin=(SDMin/MeanMin)×100%; • 4) S/B=Singal/Background; • 5) Calculation formula for IC50: • Y=Bottom+(Top−Bottom)/(1+10^((LogIC50−X)×HillSlope)) • X: log value of compound concentration; Y: Activation % or Inhibition %

| Structure (SMILES) | IC50 |
| --- | --- |
| NC(=O)C1(NC(=O)[C@H](Cc2ccccc2)NC(=O)[C@@H](Cc2c[nH]c3ccccc23)NC(=O)[C@@H](Cc2csc3ccccc23)NC(=O)C2N[C@@H]3CC[C@H]2C3)CCNCC1 (some centres unmarked) [Compound 29] (H-[X6][dBta][dW]F[Api]-NH2) | 13.3 nM |
| N=C(N)NCCC[C@@H](NC(=O)[C@H](Cc1ccccc1)NC(=O)[C@@H](Cc1c[nH]c2ccccc12)NC(=O)[C@@H](Cc1csc2ccccc12)NC(=O)[C@H]1CCN1)C(N)=O [Compound 65] (H-[dAze][dBta][dW]F[dR]-NH2) | 34.3 nM |
| CC(=O)N[C@@H](CCCCN)C(=O)N[C@H](Cc1csc2ccccc12)C(=O)N[C@H](Cc1c[nH]c2ccccc12)C(=O)N[C@@H](Cc1ccccc1)C(=O)N[C@H](CCCCN)C(N)=O [Compound 38] (Ac-K[dBta][dW]F[dK]-NH2) | 400 nM |
| CCCC[C@@H](NC(=O)[C@@H](CCCCN)NC(=O)[C@H](Cc1ccccc1)NC(=O)[C@@H](Cc1c[nH]c2ccccc12)NC(=O)[C@@H](Cc1csc2ccccc12)NC(=O)[C@H](N)CC)C(N)=O [Compound 81] (H-[dAbu][dBta][dW]F[dK][dNle]-NH2) | 7.2 nM |
| NC(=O)[C@H](Cc1ccccc1)NC(=O)[C@@H](Cc1c[nH]c2ccccc12)NC(=O)[C@@H](Cc1csc2ccccc12)NC(=O)C1CNC1 [Compound 73] | 15.9 nM |
| NCCCC[C@@H](NC(=O)[C@H](Cc1ccccc1)NC(=O)[C@@H](Cc1c[nH]c2ccccc12)NC(=O)[C@@H](Cc1csc2ccccc12)NC(=O)CN)C(N)=O [Compound 41] (H-G[dBta][dW]F[dK]-NH2) | 31.4 nM |
| CC(=O)N[C@H](CCCCN)C(=O)N[C@H](Cc1csc2ccccc12)C(=O)N[C@H](Cc1c[nH]c2ccccc12)C(=O)N[C@@H](Cc1ccccc1)C(=O)N[C@H](CCCCN)C(N)=O [Compound 37] (Ac-[dK][dBta][dW]F[dK]-NH2) | 291 nM |
| NCCCC[C@@H](NC(=O)[C@H](Cc1ccccc1)NC(=O)[C@@H](Cc1c[nH]c2ccccc12)NC(=O)[C@@H](Cc1csc2ccccc12)NC(=O)[C@H]1CCN1)C(N)=O [Compound 55] (H-[dAze][dBta][dW]F[dK]-NH2) | 20 nM |
| N=C(N)NCCC[C@@H](NC(=O)[C@H](Cc1ccccc1)NC(=O)[C@@H](Cc1c[nH]c2ccccc12)NC(=O)[C@@H](Cc1csc2ccccc12)NC(=O)[C@@H]1CCC[C@@H]1N)C(N)=O [Compound 61] (X1-[dBta][dW]F[dR]-NH2) | 20.5 nM |
| N=C(N)NCCC[C@@H](NC(=O)[C@H](Cc1ccccc1)NC(=O)[C@@H](Cc1c[nH]c2ccccc12)NC(=O)[C@@H](Cc1csc2ccccc12)NC(=O)C1(N)COC1)C(N)=O [Compound 64] (H-[Ac4c(3-oxa)][dBta][dW]F[dR]-NH2) | 38.1 nM |
| CCCC[C@@H](NC(=O)C1(NC(=O)[C@H](Cc2ccccc2)NC(=O)[C@@H](Cc2c[nH]c3ccccc23)NC(=O)[C@@H](Cc2csc3ccccc23)NC(=O)[C@H](N)CC)CCNCC1)C(N)=O [Compound 83] (H-[dAbu][dBta][dW]F[Api][dNle]-NH2) | 12.2 nM |
| NCCCC[C@@H](NC(=O)[C@H](Cc1ccccc1)NC(=O)[C@@H](Cc1c[nH]c2ccccc12)NC(=O)[C@@H](Cc1csc2ccccc12)NC(=O)C1N[C@@H]2CC[C@H]1C2)C(N)=O (some centres unmarked) [Compound 59] (H-[X6][dBta][dW]F[dK]-NH2) | 16.8 nM |
| N=C(N)NCCC[C@@H](NC(=O)[C@H](Cc1ccccc1)NC(=O)[C@@H](Cc1c[nH]c2ccccc12)NC(=O)[C@@H](Cc1csc2ccccc12)NC(=O)[C@H]1CCNC1)C(N)=O [Compound 66] ({Pyrrolidine3carbonyl(3S)}-[dBta][dW]F[dR]-NH2) | 12 nM |
| N=C(N)NCCC[C@@H](N)C(=O)N[C@H](Cc1csc2ccccc12)C(=O)N[C@H](Cc1c[nH]c2ccccc12)C(=O)N[C@@H](Cc1ccccc1)C(=O)NC1(C(N)=O)CCNCC1 [Compound 9] (H-[dR][dBta][dW]F[Api]-NH2) | 101 nM |
| CC(=O)N[C@H](CCCNC(N)=O)C(=O)N[C@H](Cc1csc2ccccc12)C(=O)N[C@H](Cc1c[nH]c2ccccc12)C(=O)N[C@@H](Cc1ccccc1)C(=O)N[C@H](CCCCN)C(N)=O [Compound 36] (Ac-[dCit][dBta][dW]F[dK]-NH2) | 122 nM |
| NC(=O)C1(NC(=O)[C@H](Cc2ccccc2)NC(=O)[C@@H](Cc2c[nH]c3ccccc23)NC(=O)[C@@H](Cc2csc3ccccc23)NC(=O)CC23CC4CC(CC(N)(C4)C2)C3)CCNCC1 [Compound 28] (X5-[dBta][dW]F[Api]-NH2) | 54.1 nM |
| CCCC[C@@H](N)C(=O)N[C@H](Cc1csc2ccccc12)C(=O)N[C@H](Cc1c[nH]c2ccccc12)C(=O)N[C@@H](Cc1ccccc1)C(=O)NC1(C(N)=O)CCNCC1 [Compound 19] (H-[dNle][dBta][dW]F[Api]-NH2) | 42.6 nM |
| CCCC[C@@H](NC(=O)[C@@H](CCCCN)NC(=O)[C@H](Cc1ccccc1)NC(=O)[C@@H](Cc1c[nH]c2ccccc12)NC(=O)[C@@H](Cc1csc2ccccc12)NC(=O)[C@H](N)CC)C(=O)N[C@H](C)C(N)=O [Compound 82] (H-[dAbu][dBta][dW]F[dK][dNle][dA]-NH2) | 9 nM |
| NCCCC[C@@H](NC(=O)[C@H](Cc1ccccc1)NC(=O)[C@@H](Cc1c[nH]c2ccccc12)NC(=O)[C@@H](Cc1csc2ccccc12)NC(=O)[C@H](N)CCCNC(N)=O)C(N)=O [Compound 31] (H-[dCit][dBta][dW]F[dK]-NH2) | 20.8 nM |
| N=C(N)NCCC[C@@H](NC(=O)[C@H](Cc1ccccc1)NC(=O)[C@@H](Cc1c[nH]c2ccccc12)NC(=O)[C@@H](Cc1csc2ccccc12)NC(=O)C1N[C@@H]2CC[C@H]1C2)C(N)=O (some centres unmarked) [Compound 69] (H-[X6][dBta][dW]F[dR]-NH2) | 40.2 nM |
| C[C@@H](N)C(=O)N[C@H](Cc1csc2ccccc12)C(=O)N[C@H](Cc1c[nH]c2ccccc12)C(=O)N[C@@H](Cc1ccccc1)C(=O)N[C@H](CCCCN)C(N)=O [Compound 42] (H-[dA][dBta][dW]F[dK]-NH2) | 40.1 nM |
| CCCC[C@H](N)C(=O)N[C@H](Cc1csc2ccccc12)C(=O)N[C@H](Cc1c[nH]c2ccccc12)C(=O)N[C@@H](Cc1ccccc1)C(=O)N[C@H](CCCCN)C(N)=O [Compound 50] (H-[Nle][dBta][dW]F[dK]-NH2) | 67.2 nM |
| N=C(N)NCCC[C@@H](NC(=O)[C@H](Cc1ccccc1)NC(=O)[C@@H](Cc1c[nH]c2ccccc12)NC(=O)[C@@H](Cc1csc2ccccc12)NC(=O)[C@H]1CNCCO1)C(N)=O [Compound 67] (X4-[dBta][dW]F[dR]-NH2) | 23.3 nM |
| N=C(N)NCCC[C@@H](N)C(=O)N[C@H](Cc1csc2ccccc12)C(=O)N[C@H](Cc1c[nH]c2ccccc12)C(=O)N[C@@H](Cc1ccccc1)C(=O)N[C@H](CCCCN)C(N)=O [Compound 39] (H-[dR][dBta][dW]F[dK]-NH2) | 272 nM |
| N=C(N)NCCC[C@@H](NC(=O)[C@H](Cc1ccccc1)NC(=O)[C@@H](Cc1c[nH]c2ccccc12)NC(=O)[C@@H](Cc1csc2ccccc12)NC(=O)CC12CC3CC(CC(N)(C3)C1)C2)C(N)=O [Compound 68] (X5-[dBta][dW]F[dR]-NH2) | 330 nM |
| NCCCC[C@@H](NC(=O)[C@H](Cc1ccccc1)NC(=O)[C@@H](Cc1c[nH]c2ccccc12)NC(=O)[C@@H](Cc1csc2ccccc12)NC(=O)[C@@]12CNC[C@@H]1C2)C(N)=O [Compound 60] (X7-[dBta][dW]F[dK]-NH2) | 22.4 nM |
